Data published in US8648042B2, “Pharmaceutical compositions” (priority 2011, dated 2014).

Tests used:
pUC119 plasmid DNA = experiment: Protection of plasmid DNA from H2O2 and UV exposure (electrophoresis); type: biochemical; details: 20 mM H2O2 + 20 mJ/m^2 UV; Amifostine 2000 μg/ml, GP-A 4000 μg/ml; FIG. 3
Method: In this example, we examined the ability of GP-A in protecting plasmid DNA from hydrogen peroxide (H2O2) and UV exposure, which was also an indicator of the ability of quenching free radicals because free radicals tend to attack DNA structure. Amifostine, GP-Amifostine and GP were respectively dissolved in dd-water at various concentrations.
The above-nine experimental groups were then mixed with 3 μl loading dye for electrophoresis in order to observe the integrity of the plasmid DNA.

[1] = cited from earlier work
[2] = patients, intravenously before each fraction of radiation therapy; cited from earlier work
[3] = NSCLC patients, chemoradiation therapy, Arm 2; cited from earlier work
[4] = cited from earlier work; remark: listed apart in the source

Structure (SMILES): NCCCNCCSP(=O)(O)O [Amifostine, S-2-(3-aminopropylamino)ethyl dihydrogen phosphorothioate]
- protection ability against UV & H2O2 treated plasmid DNA (pUC119 plasmid DNA): solid and slight protection ability
- protection of brain and spinal cord from radiation damage ([1]; brain and spinal cord): not protected
- protection of normal tissues from radiation damage (factor) ([1]; esophagus, lung, kidney, liver, bone marrow, immune system, skin, colon, small bowel, salivary gland, oral mucosa, testis): ≤ 3
- distribution between normal tissues and tumors ([1]; in vivo): selectively concentrated in normal tissues but passively absorbed by tumors
- sparing of tumors from the effects of radiation or chemotherapy ([1]; tumors): no evidence that tumors were spared
- severity of acute and late xerostomia [2]: significant reduction
- Median survival time [3]: 19 months
- discharge from a human body ([4]; human): within one hour
- undesirable side-effects of systemic administration ([4]; patients, systemic administration): nausea, vomiting, emesis and hypotension, as well as flushing or feeling of warmth, chills or feeling of coldness, dizziness, somnolence, hiccups and sneezing
